Test results from patent publication US12655380B2, “Fluidic device” (UNIVERSITY PUBLIC CORPORATION OSAKA, priority 2019, dated 2026).

Tested on: BBB model (human cerebrovascular endothelial cells, pericytes, astrocytes)
Experiment: Barrier Function Evaluation Experiment 2: passage of the fluorescent dye through the BBB model in the fluidic device
Assay type: in vitro ADME
Settings: 200 μM Lucifer Yellow in first flow path; after 5 minutes (300 seconds) flow; measured in the neuron cell culture module in the second accommodation section, behind the BBB model; FIG. 25(b)/FIG. 26
Method: Specifically, a cubic polycarbonate three-dimensional frame having a side length of 5 mm was prepared, and a 1.5% agarose gel was poured into an opening of the three-dimensional frame and gelled to form a film-shaped window from the resulting hydrogel. The window was formed on each of five faces of the three-dimensional frame as described above. Thereafter, a clump of neurons differentiated from human brain-derived neural stem cells and Matrigel (registered trademark) being an un-gelled culture gel were injected into a cubic space within the three-dimensional frame, and the culture gel was gelled. Then, a hydrogel window was formed on a remaining face of the three-dimensional frame. Through the above, the cell culture module including neurons was produced. […]
An experiment was conducted for evaluation of the barrier function of the BBB model. […] After the fluorescent dye solution and the medium had flowed for 5 minutes (300 seconds), a fluorescence image and a phase-contrast image of the inside of the cell culture module were captured through the fluidic device.
FIGS. 24(a) and 24(b) each show a fluorescence image (left) of the inside of the cell culture module including neurons used in the control experiment, and an image (right) obtained by superimposing the fluorescence image and a phase-contrast image on one another. […]

Lucifer Yellow [fluorescent dye] was tested, and the “relative luminance value on dashed line x-x' (corresponds to Lucifer Yellow concentration)” value was “approximately 0.1”.
